Results taken from patent US8178506B2, “Oligomeric compounds and compositions for use in modulation of small non-coding RNAs” (Regulus Therapeutics Inc., priority 2003, dated 2012).
Entries after “also recorded” stand apart in the source; their conditions may differ. In the oligonucleotide strings, read from the 5' end, every base follows the letter of its sugar. An asterisk marks phosphorothioate; unmarked linkages are phosphodiester. Other units and linkages are bracketed, terminal groups are in braces. A string of capitals states the bases alone. e = 2'-O-(2-methoxyethyl) (MOE); [5mC] = 5-methylcytosine; d = 2'-deoxy (DNA)

Tests used:
[1] = test system: preadipocytes / differentiating adipocytes; assay: Adipocyte differentiation assay, markers taken together; format: cell-based, human; conditions: for expression levels of markers of adipocyte differentiation (TG, leptin, aP2, HSL, Glut4, PPARγ): preadipocytes, 250 nM, day nine post-transfection, relative to ISIS-29848; for five markers of adipocyte differentiation: % of UTC (Table 55); for 5 markers of adipocyte differentiation: % of UTC (Table 75)
Procedure: Oligomeric compounds of the invention are tested for their effects on preadipocyte differentiation. […] For the other adipocyte differentiation markers assayed, an oligomeric compound targeted to PPAR-γ, also known to inhibit adipocyte differentiation, may be used as a positive control.
Cells are transfected as described herein. […] Untreated control cells receive LIPOFECTIN™ only.
After the cells have reach confluence (approximately three days), they are exposed for an additional three days to differentiation medium (Zen-Bio, Inc., Research Triangle Park, N.C.) containing a PPAR-γ agonist, IBMX, dexamethasone, and insulin. Cells are then fed adipocyte medium (Zen-Bio, Inc.), which is replaced at 2 or 3 day intervals.
For assaying adipocyte differentiation, expression of the four hallmark genes, HSL, aP2, Glut4, and PPARγ, as well as triglyceride (TG) accumulation and leptin secretion were measured in adipocytes transfected with the uniform 2′-MOE phosphorothioate (PS) oligomeric compounds previously described. Cells are lysed on day nine post-transfection, in a guanadinium-containing buffer and total RNA is harvested. Real-time PCR is performed (Applied Biosystems, Prism 7700) on the total RNA using the following primer/probe sets for the adipocyte differentiation hallmark genes: (aP2): forward 5′-GGTGGTGGAATGCGTCATG-3′ (SEQ ID NO: 746), reverse 5′-[…]-3′ (SEQ ID NO: 747), probe 5′-FAM-[…]-TAMRA-3′ (SEQ ID NO: 748); (Glut4): forward 5′-GGCCTCCGCAGGTTCTG-3′ (SEQ ID NO: 749), reverse 5′-[…]-3′ (SEQ ID NO: 750), probe 5′-FAM-[…]-TAMRA-3′ (SEQ ID NO: 751); (HSL): forward 5′-ACCTGCGCACAATGACACA-3′ (SEQ ID NO: 752), reverse 5′-[…]-3′ (SEQ ID NO: 753), probe 5′-FAM-[…]-TAMRA-3′ (SEQ ID NO: 754); (PPAR-γ): forward 5′-[…]-3′ (SEQ ID NO: 755), reverse 5′-[…]-3′ (SEQ ID NO: 756), probe 5′-FAM-[…]-TAMRA-3′ (SEQ ID NO: 757). The amount of total RNA in each sample is determined using a Ribogreen Assay (Molecular Probes, Eugene, Oreg.), and expression levels of the adipocyte differentiation hallmark genes were normalized to total RNA. Leptin protein and triglyceride levels as well as mRNA levels for each of the four adipocyte differentiation hallmark genes are expressed relative to control levels (control=treatment with ISIS-29848 (SEQ ID NO: 737)).
In some embodiments, differentiating adipocytes were treated with uniform 2′-MOE phosphorothioate oligomeric compounds according to the methods described above, and the expression of the four hallmark genes, HSL, aP2, Glut4, and PPARγ, as well as triglyceride (TG) accumulation were measured. […] Undifferentiated adipocytes were also compared as a negative control. […] The effects of TNF-α, also known to inhibit adipocyte differentiation, were also measured.

[2] = test system: PPARγ; assay: PPARγ mRNA expression in adipocytes (real-time PCR); format: cell-based, human; conditions: preadipocytes, 250 nM, day nine
[3] = test system: HuVECs; assay: Endothelial tube formation assay in HuVECs; conditions: 75 nM
Procedure: In some embodiments, HUVECs are used to measure the effects of oligomeric compounds of the invention on endothelial tube formation activity. The tube formation assay is performed using an in vitro Angiogenesis Assay Kit (Chemicon International, Temecula, Calif.).
Approximately fifty hours after transfection, cells are transferred to 96-well plates coated with ECMatrix™ (Chemicon International). Under these conditions, untreated HUVECs form tube-like structures. After an overnight incubation at 37° C., treated and untreated cells are inspected by light microscopy. Tube formation in cells treated with oligomeric compounds is compared to that in untreated control cells. Individual wells are assigned discrete scores from 1 to 5 depending on the extent of tube formation. A score of 1 refers to a well with no tube formation while a score of 5 is given to wells where all cells are forming an extensive tubular network.
In one embodiment, primary human umbilical vein endothelial cells (HuVECs) were used to measure the effects of oligomeric compounds targeted to miRNAs on tube formation activity. HuVECs were routinely cultured in EBM (Clonetics Corporation, Walkersville, Md.) supplemented with SingleQuots supplements (Clonetics Corporation, Walkersville, Md.). […] HuVECs are plated at 3000 cells/well in 96-well plates. One day later, cells are transfected with oligomeric compounds. The tube formation assay is performed using an in vitro Angiogenesis Assay Kit (Chemicon International, Temecula, Calif.).
ISIS 29248 and ISIS 196103 are chimeric 5-10-52′-MOE gapmer oligonucleotides. […] All cytidine residues are 5-methylcytidines. ISIS 342672 (SEQ ID NO: 789) contains 13 mismatches with respect to the mature mir-143 miRNA, and was also used as a negative control. ISIS 342672 is a uniform 2′-MOE phosphorothioate oligomeric compound 22 nucleotides in length. All cytidine residues are 5-methylcytidines.
Oligomeric compound was mixed with LIPOFECTIN™ (Invitrogen Life Technologies, Carlsbad, Calif.) in OPTI-MEM™ (Invitrogen Life Technologies, Carlsbad, Calif.) to achieve a final concentration of 75 nM of oligomeric compound and 2.25 μg/mL LIPOFECTIN™. Before adding to cells, the oligomeric compound, LIPOFECTIN™ and OPTI-MEM™ were mixed thoroughly and incubated for 0.5 hrs. Untreated control cells received LIPOFECTIN™ only. […] Compounds targeted to miRNAs were tested in triplicate, and ISIS 29848 was tested in up to six replicates. […] 100 μL of full growth medium was added to each well. Fifty hours after transfection, cells are transferred to 96-well plates coated with ECMa-trix™ (Chemicon Inter-national). Under these conditions, untreated HuVECs form tube-like structures.

[4] = test system: HeLa cells; assay: Cell cycle assay in HeLa cells; format: cell-based, human; conditions: HeLa, 150 nM
[5] = test system: BJ, B16-F10, T47D, T47Dp53 and HeLa cells; assay: Cell cycle assay (propidium iodide flow cytometry), cell line panel; format: cell-based; conditions: 150 nM, 72 hours (Table 29)
[6] = test system: PEPCK-c; assay: PEPCK-c mRNA expression in HepG2 cells; format: cell-based, human; conditions: HepG2, 1 nM insulin, 100 nM
[7] = test system: T47D cells; assay: Caspase-3 activity assay (apoptosis) in T47D cells; conditions: caspase assay, 200 nM; conclusion from Tables 9-12

With “AACCATACAACCTACTACCTCA (chemistry not given here) [ISIS 327931, uniform 2′-MOE PS; targets let-7c]” the “expression levels of markers of adipocyte differentiation (TG, leptin, aP2, HSL, Glut4, PPARγ)” value [1] was “increase in four out of six markers of adipocyte differentiation; also recorded: increase in expression levels for several markers of adipocyte differentiation” and the “expression of PPAR-γ” value [2] was “significant increase in the expression of PPAR-γ”.
For “AACCGATTTCAGATGGTGCTAG (anti-miR; chemistry not fully specified) [ISIS 327928]”, the “five markers of adipocyte differentiation” value ([1]; differentiating adipocytes) was “reduce the expression levels of all five markers of adipocyte differentiation” and the tube formation [3] was “suppressed tube formation”.
For “AAGGGATTCCTGGGAAAACTGGAC (chemistry not given here) [ISIS 327933, uniform 2′-MOE PS; targets mir-145]”, the “expression levels of markers of adipocyte differentiation (TG, leptin, aP2, HSL, Glut4, PPARγ)” value [1] was “increase in all six markers of adipocyte differentiation”, the “phase of the cell cycle in which cells arrest or delay” value ([4]; 24 hours) was “G2/M-phase” and the “phase of the cell cycle in which cells arrest or delay” value ([4]; 48 hours) was “subG1-phase”. The “percentage of cells in the G2/M phase” value [5] was “increased percentage of cells in the G2/M phase”.
For “AATCTCATTTTCATACTTGCA (anti-miR; chemistry not fully specified) [ISIS 328114, uniform 2′-MOE PS; targets hypothetical miRNA-138]”, the “five markers of adipocyte differentiation” value ([1]; differentiating adipocytes) was “increase in all five markers of adipocyte differentiation” and the “reduction of PEPCK-c mRNA expression” value [6] was 59%.
For “CTACCTGCACGAACAGCACTTT (chemistry not given here) [ISIS 340348, uniform 2′-MOE PS; targets mir-93]”, the “5 markers of adipocyte differentiation” value ([1]; differentiating adipocytes) was “significantly reduce the expression levels of 3 of the 5 markers of adipocyte differentiation” and the “percentage of cells with hypodiploid DNA content (subG1)” value [5] was “increased percentage of cells with hypodiploid DNA content”.
For “GTCTGTCAATTCATAGGTCAT (chemistry not given here) [ISIS 327960, uniform 2′-MOE PS; targets mir-215]”, the “five markers of adipocyte differentiation” value ([1]; differentiating adipocytes) was “reduce the expression levels of all five markers of adipocyte differentiation”.
With “ISIS 328400: 5-10-5 2′-MOE gapmer PS; targets mir-196-2 pri-miRNA (eA*eG*eT*eT*e[5mC]*dA*dA*dA*dA*d[5mC]*dT*d[5mC]*dA*dA*dT*e[5mC]*e[5mC]*e[5mC]*eA*eA)” the “five markers of adipocyte differentiation” value ([1]; differentiating adipocytes) was “reduce the expression levels of all five markers of adipocyte differentiation” and the “apoptosis in T47D cells” value [7] was “induce apoptosis”.
“ISIS 340352: SEQ ID NO: 1821, targeted to mir-99 (Mourelatos) (CACAAGAUCGGAUCUACGGGUU; all 2'-MOE, all phosphorothioate, methylation of C and T or U not given here)” was tested, and the “5 markers of adipocyte differentiation” value ([1]; differentiating adipocytes) was “increases in 4 of the 5 markers of adipocyte differentiation”.
With “ISIS 341798: SEQ ID NO: 1871, targeted to mir-123/mir-126 (antisense GCAUUAUUACUCACGGUACGA; all 2'-MOE, all phosphorothioate, methylation of C and T or U not given here)” the “5 markers of adipocyte differentiation” value ([1]; differentiating adipocytes) was “significantly reduce the expression levels of 3 of the 5 markers of adipocyte differentiation”.
“ISIS 344340: SEQ ID NO: 1921, targeted to mir-140 (antisense UGUCCGUGGUUCUACCCUGUGGUA; all 2'-MOE, all phosphorothioate, methylation of C and T or U not given here)” was tested, and the “5 markers of adipocyte differentiation” value ([1]; differentiating adipocytes) was “significantly reduce the expression levels of 3 of the 5 markers of adipocyte differentiation”.
In the case of “ISIS 344615: SEQ ID NO: 1900, targeted to mir-244* (Kosik) (antisense UCAACAAAAUCACUGAUGCUGGA; all 2'-MOE, all phosphorothioate, methylation of C and T or U not given here)”, the “5 markers of adipocyte differentiation” value ([1]; differentiating adipocytes) is reported as “significant increases in all 5 markers of adipocyte differentiation”.
For “ISIS 346685: SEQ ID NO: 1884, targeted to mir-27 (Mourelatos) (antisense GGCGGAACUUAGCCACUGUGAA; all 2'-MOE, all phosphorothioate, methylation of C and T or U not given here)”, the “5 markers of adipocyte differentiation” value ([1]; differentiating adipocytes) was “significant increases in all 5 markers of adipocyte differentiation”.
With “ISIS 346687: SEQ ID NO: 1802, targeted to mir-129-1 (antisense AGCAAGCCCAGACCGCAAAAAG; all 2'-MOE, all phosphorothioate, methylation of C not given here)” the “5 markers of adipocyte differentiation” value ([1]; differentiating adipocytes) was “significantly reduce the expression levels of 3 of the 5 markers of adipocyte differentiation”.
“ISIS 348117: SEQ ID NO: 1860, targeted to mir-321-1 (antisense GAACCCACAAUCCCUGGCUUA; all 2'-MOE, all phosphorothioate, methylation of C and T or U not given here)” was tested, and the “5 markers of adipocyte differentiation” value ([1]; differentiating adipocytes) was “significantly reduce the expression levels of 3 of the 5 markers of adipocyte differentiation”.
For “ISIS 348127: SEQ ID NO: 1869, targeted to mir-27b (antisense GCAGAACUUAGCCACUGUGAA; all 2'-MOE, all phosphorothioate, methylation of C and T or U not given here)”, the “5 markers of adipocyte differentiation” value ([1]; differentiating adipocytes) was “significant increases in all 5 markers of adipocyte differentiation”.
With “TCCACAAAGCTGAACATGTCT (anti-miR; chemistry not fully specified) [ISIS 328117, uniform 2′-MOE PS; targets hypothetical miRNA-144]” the “expression of the other four hallmark genes (HSL, aP2, Glut4, PPARγ)” value ([1]; differentiating adipocytes, control ISIS 342673) was “reduction of expression of the other four hallmark genes”.
For “TCCTGGATGATATCTACCTC (chemistry not fully specified) [ISIS 328677, 5-10-5 2′-MOE gapmer PS; targets hypothetical miRNA-120 pri-miRNA]”, the “five markers of adipocyte differentiation” value ([1]; differentiating adipocytes) was “reduce the expression levels of all five markers of adipocyte differentiation”.
